In patent US9375459B2, “Cyclic peptides with an anti-neoplasic and anti-angiogenic activity” (priority 2011, dated 2016):
“Also recorded” adds a separate entry of the source. Like-named read-outs stand apart in the source and are kept apart here. Where a SMILES comes first, the peptide text is derived from it. Bridges are numbered along the chain shown (N, C = ends).

Columns and labels:
[1] = test system: human colon cancer Ls174T cell line implanted in NIH athymic mice; experiment: Ls174T colon cancer tumor model in athymic mice; assay type: in vivo; details: FIG. 19B
Method: The Ls174T colon cancer tumor model in athymic mice was used to evaluate the potential effect of the linear Gly255-Ser274 segment (peptide N06P87), compared to the CIGB370r polypeptide, on human tumor models. Human tumor cells were administered by subcutaneous route, and the molecules of interest or the vehicle were administered by intratumor route (100 μL). After 13 days, when tumors were implanted and palpable, administration schedules started for the molecules of interest (FIG. 8A). The peptide N06P87 was administered in down-scaled doses: two administrations of 600 μM each every 48 h, followed by 4 administrations of 330 μM each every 48 h, and lastly 4 administrations of 90 μM each every 72 h. The CIGB370r peptide was administered weekly for 4 weeks.
The effects of the linear segment Gly255-Ser274 (peptide N06P87) and two other model cyclic peptides of the present invention were compared to the effect of the CIGB370r polypeptide in the Ls174T human colon cancer model in athymic NIH mice, with the dose and schedule shown in FIG. 19. After 13 days, once the tumors were implanted and palpable, biomolecules began to be administered (FIG. 19 A). The peptides were administered in down-scaled doses: 2 administrations of 600 μM every 48 h, followed by 4 administrations of 330 μM each every 48 h, and 4 final 90 μM administrations every 72 h. […]

TC-1 tumor = experiment: TC-1 subcutaneous tumor model in C57BL/6 mice; assay type: in vivo; details: 80 μM; for survival: intratumoral route
Method: Six-to-eight weeks-old, C57BL/6 female mice of 22 g of weight were supplied by the National Center for Laboratory Animal Production (CENPALAB, Havana, Cuba) and housed under pathogen-free conditions at the Bioterium of the Center for Genetic Engineering and Biotechnology (CIGB). Experiments were carried out in agreement with regulations for proper handling and care of laboratory animals. Tumor volume was measured on each case (estimated by the formula: volume=a^2×(b/2), where a is the width and b is the length of the tumor) and animal survival was evaluated.
Survival was compared between groups by the Logrank test. The statistic parameters were obtained with the aid of the GraphPad Prism 4.0 software (GraphPad Software, San Diego, Calif., USA).
C57BL/6 mice were injected in the right flank by subcutaneous route (s.c.) with 50 000 TC-1 cells. When tumors were detectable, mice were randomized into treatment groups to evaluate the treatment with the peptides subject of study, to evaluate them by different administration routes. Tumor-bearing animals received 6 administrations in alternate days, with 80 μM of the subject peptide, solely received the vehicle as control. Five mice were used for each group. Animals were housed under pathogen-free conditions, and procedures were conducted in agreement with good practices for laboratory animal handling and care.

[2] = test system: human tumor cell lines (A549, A375, PC-3, U87)
M14 (melanoma) = experiment: SRB cytotoxicity on M14 melanoma cells; assay type: cell-based; details: M14 human melanoma cells
Method: (§1) Negative control cells were cultured on a volume of vehicle equal to that of the experimental samples. An “x-y” curve (dose-response) was established with the percent of surviving cells, compared in respect to the negative control cells, and the following parameters were estimated: 50% growth inhibition (GI50); Total growth inhibition (TGI); and the lethal concentration 50 (LC50), that is the concentration causing the 50% of cell death (Boyd M R, Paull K D, and Rubinstein L R (1992) “Data display and analysis strategies for the NCI Disease Oriented In-Vitro Antitumor Drug Screen, in Cytotoxic Anticancer Drugs: Models and Concept for Drug Discovery and Development” (Baleriote F A, Corbett T H and Baker L H eds) pp 11-34, Kluwer Academia Publishers, Boston).
(§2) Were considered as cytotoxic peptides all those peptides being able of inhibiting 50% of the cellular proliferation, in a dose-dependent manner, and showing GI50 values below 100 μM, at least in one of the cell lines studied. The human tumor cell lines used were: HEp-2 (larynx carcinoma), A549 (lung epithelial adenocarcinoma), M14 (melanoma), Colo 205 (colon adenocarcinoma), Ls174T (colon adenocarcinoma), LnCAP (prostate carcinoma), PC-3 (prostate carcinoma) and H 125 (non-small cell lung adenocarcinoma). Represented are primary sequences for the designed peptides, the code used for its generation and their respective cytotoxic capacity on human tumor cells.
The inability of peptide N06P89 (cyclized by two cysteins located at both N- and C-termini) to inhibit cellular proliferation in M14 human melanoma tumor cells is shown in FIG. 7. […] At the same FIG. 7, it is also shown the need for blocking the C-terminus (for example, an amide group or other modification) to achieve the cytotoxic capacity expected for the peptide region of interest.

human tumor cells = experiment: Cytotoxic activity screening of peptide library on human tumor cell lines, SRB method; assay type: cell-based
Method: as §1, §2

[3] = test system: Ls174T (colon adenocarcinoma); experiment: SRB cytotoxicity on Ls174T cells; assay type: cell-based, human
Method: as §1
as §2, with “Represented are primary sequences for the designed peptides, the code used for its generation and their respective cytotoxic capacity on human tumor cells.” left out

HEp-2 (larynx carcinoma) = experiment: SRB cytotoxicity on HEp-2 cells; assay type: cell-based, human
Method: as §1
as §2, with “Represented are primary sequences for the designed peptides, the code used for its generation and their respective cytotoxic capacity on human tumor cells.” left out

[4] = test system: A549 (lung epithelial adenocarcinoma); experiment: SRB cytotoxicity on A549 cells; assay type: cell-based, human
Method: as §1
as §2, with “Represented are primary sequences for the designed peptides, the code used for its generation and their respective cytotoxic capacity on human tumor cells.” left out

[5] = test system: Colo 205 (colon adenocarcinoma); experiment: SRB cytotoxicity on Colo 205 cells; assay type: cell-based, human
Method: as §1
as §2, with “Represented are primary sequences for the designed peptides, the code used for its generation and their respective cytotoxic capacity on human tumor cells.” left out

[6] = peptide combined with prodigiosin

Compound	T/C values related to the mean tumor volume [1] [%]	survival (TC-1 tumor)	GI50 values [2, 6]	cytotoxic activity / inhibition of cellular proliferation (M14 (melanoma))	effect on the cytotoxic activity of prodigiosin [2, 6]	decrease of the cytotoxic activity of prodigiosin on primary fibroblasts (primary fibroblasts; [6])	also measured
CC(C)C[C@@H]1NC(=O)[C@H](Cc2ccccc2)NC(=O)[C@H](CC(=O)O)NC(=O)[C@H](CCCNC(=N)N)NC(=O)CNC(=O)[C@H]([C@@H](C)O)NC(=O)[C@H](CC(N)=O)NC(=O)[C@@H](N)CSSC[C@@H](C(N)=O)NC1=O [Peptide A08P25s-s, CNTGRDFLC] (H-CNTGRDFLC-NH2; disulfide 1-9)	35	intermediate survival block	nm range	–	–	–	effect on the cytotoxic activity of prodigiosin [2]: enhanced; decrease of the cytotoxic activity of prodigiosin on primary fibroblasts (primary fibroblasts): at least one order of magnitude
CC(C)C[C@@H]1NC(=O)[C@H](Cc2ccccc2)NC(=O)[C@H](CC(=O)O)NC(=O)[C@H](CCCNC(=N)N)NC(=O)CNC(=O)[C@H]([C@@H](C)O)NC(=O)[C@H](CC(N)=O)NC(=O)[C@H](CO)NC(=O)[C@H](CC(N)=O)NC(=O)[C@H](Cc2ccccc2)NC(=O)CNC(=O)[C@H](Cc2ccc(O)cc2)NC(=O)[C@H](C(C)C)NC(=O)[C@H]([C@@H](C)O)NC(=O)[C@H](CC(=O)O)NC(=O)CNC(=O)[C@@H](N)CSSC[C@@H](C(N)=O)NC(=O)[C@H](CO)NC(=O)[C@H]([C@@H](C)O)NC(=O)[C@H]([C@@H](C)O)NC(=O)[C@H](CO)NC1=O [Peptide N06P89] (H-CGDTVYGFNSNTGRDFLSTTSC-NH2; disulfide 1-22)	–	–	–	inability; also recorded: loss of peptide's biological activity	–	–	–
CC(C)[C@H](NC(=O)[C@@H](NC(=O)[C@H](CC(=O)O)NC(=O)CN)[C@@H](C)O)C(=O)N[C@H]1CSSC[C@@H](C(=O)N[C@@H](CO)C(=O)N[C@H](C(=O)N[C@H](C(=O)N[C@@H](CO)C(N)=O)[C@@H](C)O)[C@@H](C)O)NC(=O)[C@H](Cc2ccccc2)NC(=O)[C@H](CC(=O)O)NC(=O)[C@H](CCCNC(=N)N)NC(=O)CNC(=O)[C@H]([C@@H](C)O)NC(=O)[C@H](CC(N)=O)NC(=O)[C@H](CO)NC(=O)[C@H](CC(N)=O)NC(=O)[C@H](Cc2ccccc2)NC(=O)CNC1=O [Peptide J08P46s-s] (H-GDTVCGFNSNTGRDFCSTTS-NH2; disulfide 5-16)	–	intermediate survival block	nm range	–	enhanced	at least one order of magnitude	–
CC[C@H](C)[C@H](NC(=O)[C@H](CC(N)=O)NC(=O)[C@@H](NC(=O)[C@H](CO)NC(=O)[C@H](CC(C)C)NC(=O)[C@H](CC(=O)O)NC(=O)[C@@H](NC(=O)[C@@H](NC(=O)[C@H](CC(N)=O)NC(=O)[C@H](CO)NC(=O)[C@H](CO)NC(=O)[C@H](C)NC(=O)[C@@H](N)CC(N)=O)C(C)C)[C@@H](C)O)C(C)C)C(=O)NCC(=O)NCC(=O)N[C@@H](Cc1c[nH]cn1)C(=O)N[C@@H](CCC(N)=O)C(=O)N[C@@H](C)C(=O)N1CCC[C@H]1C(=O)N[C@@H](CC(=O)O)C(N)=O [Peptide E02P04] (H-NASSNVTDLSVNIGGHQAPD-NH2)	–	–	–	showed activity	–	–	cytotoxic activity / inhibition of cellular proliferation (M14 (melanoma); listed as E07P04): showed cytotoxic activity; Cytotoxic activity in vitro (human tumor cells; SRB method, cytotoxic = dose-dependent 50% inhibition of proliferation, GI50 below 100 μM in at least one cell line): + (Symbol + indicates the presence of cytotoxicity)
CC(C)C[C@@H]1NC(=O)[C@H](Cc2ccccc2)NC(=O)[C@H](CC(=O)O)NC(=O)[C@H](CCCNC(=N)N)NC(=O)CNC(=O)[C@H]([C@@H](C)O)NC(=O)[C@H](CC(N)=O)NC(=O)[C@H](CO)NC(=O)[C@H](CC(N)=O)NC(=O)[C@@H](NC(=O)CNC(=O)[C@H](Cc2ccc(O)cc2)NC(=O)[C@@H](NC(=O)[C@@H](NC(=O)[C@H](CC(=O)O)NC(=O)CN)[C@@H](C)O)C(C)C)CSSC[C@@H](C(N)=O)NC(=O)CNC(=O)[C@H]([C@@H](C)O)NC(=O)[C@H](CO)NC1=O [Peptide J08P48s-s] (H-GDTVYGCNSNTGRDFLSTGC-NH2; disulfide 7-20)	35	highest survival block	nm range	–	enhanced	at least one order of magnitude	survival by intratumoral and intraperitoneal routes (TC-1 tumor; i.t. or i.p., FIG. 17): reproduce the effects observed in this model for the CIGB370r polypeptide
CC(C)C[C@H](NC(=O)[C@H](Cc1ccccc1)NC(=O)[C@H](CC(=O)O)NC(=O)[C@H](CCCNC(=N)N)NC(=O)CNC(=O)[C@@H](NC(=O)[C@H](CC(N)=O)NC(=O)[C@H](CO)NC(=O)[C@H](CC(N)=O)NC(=O)[C@H](Cc1ccccc1)NC(=O)CNC(=O)[C@H](Cc1ccc(O)cc1)NC(=O)[C@@H](NC(=O)[C@@H](NC(=O)[C@H](CC(=O)O)NC(=O)CN)[C@@H](C)O)C(C)C)[C@@H](C)O)C(=O)N[C@@H](CO)C(=O)N[C@H](C(=O)N[C@H](C(=O)N[C@@H](CO)C(N)=O)[C@@H](C)O)[C@@H](C)O [Peptide N06P87] (H-GDTVYGFNSNTGRDFLSTTS-NH2)	–	–	–	–	–	–	GI50 [3]: < 100 µM; GI50 (HEp-2 (larynx carcinoma)): < 100 µM; GI50 [4]: < 100 µM; cytotoxic / biological activity in vitro on tumor cells (human tumor cells; peptide library screening): active; change of cytotoxic activity by parenteral formulation buffers, pH and additives (human tumor cells; tumor cells from diverse histological origins): no increased on its cytotoxic activity; GI50 [5]: < 100 µM
